Experimental data: paper PMC8148468, “Shikimic acid protects skin cells from UV-induced senescence through activation of the NAD+-dependent deacetylase SIRT1” (Aging (Albany NY), 2021)

Experiments:
[1] = test system: H3K9ac (the target of SIRT1, SIRT2 and SIRT6); assay: Sirtuin activity assay in HDF: H3K9ac levels (Western blot); format: cell-based, human; conditions: UV conditions, -/+25mM SA -/+1μM EX-527
[2] = biological target: T1, FLAG-SIRT1 purified from HEK293 cells (Homo sapiens, UniProt Q96EB6); assay: In vitro SIRT1 deacetylation assay; format: biochemical; conditions: -/+ NAD+, Shikimic acid 1 μM-10mM
T1 construct: FLAG; made in house; host or cells: HEK293 (HEK293F)
T1 sequence (Q96EB6 1-747): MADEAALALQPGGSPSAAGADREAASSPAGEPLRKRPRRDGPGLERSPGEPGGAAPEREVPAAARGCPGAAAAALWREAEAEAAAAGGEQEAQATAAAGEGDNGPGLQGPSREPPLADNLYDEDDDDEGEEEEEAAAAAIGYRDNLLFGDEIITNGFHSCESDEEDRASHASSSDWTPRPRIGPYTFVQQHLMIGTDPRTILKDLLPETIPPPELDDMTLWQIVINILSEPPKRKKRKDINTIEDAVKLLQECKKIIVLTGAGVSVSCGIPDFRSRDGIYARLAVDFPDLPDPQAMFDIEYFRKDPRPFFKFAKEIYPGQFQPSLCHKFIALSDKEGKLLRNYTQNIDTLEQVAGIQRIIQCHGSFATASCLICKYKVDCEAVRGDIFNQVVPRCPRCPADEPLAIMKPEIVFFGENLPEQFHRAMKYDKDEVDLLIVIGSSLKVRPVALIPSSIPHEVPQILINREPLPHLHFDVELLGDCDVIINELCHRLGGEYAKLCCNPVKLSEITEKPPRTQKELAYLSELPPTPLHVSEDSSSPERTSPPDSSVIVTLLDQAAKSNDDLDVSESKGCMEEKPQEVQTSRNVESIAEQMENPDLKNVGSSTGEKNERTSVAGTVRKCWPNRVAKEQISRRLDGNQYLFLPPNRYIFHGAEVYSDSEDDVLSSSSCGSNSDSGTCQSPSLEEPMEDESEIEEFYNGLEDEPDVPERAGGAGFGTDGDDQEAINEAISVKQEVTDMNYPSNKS
Experimental: Figure 3 (A) Schematic representation of the protocol for senescence induction using UVB irradiation and study of EX527 involvement in the effect of Shikimic acid. Cells were treated with or without shikimic acid -/+ EX-527 from day 1 until day 7 after seeding, irradiated with UVB on days 2 and 5 and harvested for analysis on day 7. (B) Phase-contrast (left column) and bright field (right column) microscope images of β-Gal staining showing non-irradiated cells non-treated and treated with shikimic acid (10, 25 and 50 mM), UVB-irradiated cells non-treated and treated with shikimic acid (10, 25 and 50 mM), shikimic acid (10, 25 and 50 mM) + EX-527 1 μM and EX-527 1 μM. (C) Percentage of SA-β-Gal positive cells and (D) relative HAS2 mRNA levels in non-irradiated cells non-treated and treated with Shikimic acid (10, 25 and 50 mM), UVB-irradiated cells non-treated and treated with Shikimic acid (10, 25 and 50 mM), Shikimic acid (10, 25 and 50 mM) + EX-527 1 μM and EX-527 1 μM. (E) Percentage of SA-β-Gal as in (C) of SA 25 or 50mM upon siRNA mediated downregulation of SIRT1, SIRT2 or SIRT6. siScr: scramble siRNA. […] SIRT1 activity was then evaluated by analyzing acetylation of H3K9, H4K16 and p53K382 by Western blot. […]
The in vitro SIRT1 deacetylation assay was performed as previously described. […] Deacetylation was monitored by quantification of H3K9ac/H3, H4K16ac/H4 and p53K382ac/p53 levels.

O=C(O)C1=C[C@@H](O)[C@@H](O)[C@H](O)C1 [Shikimic acid] was tested, and the “H3K9ac/H3 levels under UV-induced senescence” value [1] was “induced increased deacetylation of H3K9ac and H4K16ac” and the “SIRT1 deacetylation activity in vitro (H3K9ac, H4K16ac, p53K382ac)” value [2] was “did not alter SIRT1 deacetylation activity in vitro”.
